Measured values published in patent publication US20260137774A1, “Hepatitis B Virus Receptor OATP and Use Thereof” (priority 2022, published 2026).

How the values were obtained:
HepG2 cells = test: Drug susceptibility test of selection antibiotics on HepG2 cells; type: cell-based
human OATP1B1 (hOATP1B1) = biological target: T1, human OATP1B1 (hOATP1B1) (Homo sapiens, UniProt Q9Y6L6); details: pH 7.4
T1 sequence (Q9Y6L6 1-691): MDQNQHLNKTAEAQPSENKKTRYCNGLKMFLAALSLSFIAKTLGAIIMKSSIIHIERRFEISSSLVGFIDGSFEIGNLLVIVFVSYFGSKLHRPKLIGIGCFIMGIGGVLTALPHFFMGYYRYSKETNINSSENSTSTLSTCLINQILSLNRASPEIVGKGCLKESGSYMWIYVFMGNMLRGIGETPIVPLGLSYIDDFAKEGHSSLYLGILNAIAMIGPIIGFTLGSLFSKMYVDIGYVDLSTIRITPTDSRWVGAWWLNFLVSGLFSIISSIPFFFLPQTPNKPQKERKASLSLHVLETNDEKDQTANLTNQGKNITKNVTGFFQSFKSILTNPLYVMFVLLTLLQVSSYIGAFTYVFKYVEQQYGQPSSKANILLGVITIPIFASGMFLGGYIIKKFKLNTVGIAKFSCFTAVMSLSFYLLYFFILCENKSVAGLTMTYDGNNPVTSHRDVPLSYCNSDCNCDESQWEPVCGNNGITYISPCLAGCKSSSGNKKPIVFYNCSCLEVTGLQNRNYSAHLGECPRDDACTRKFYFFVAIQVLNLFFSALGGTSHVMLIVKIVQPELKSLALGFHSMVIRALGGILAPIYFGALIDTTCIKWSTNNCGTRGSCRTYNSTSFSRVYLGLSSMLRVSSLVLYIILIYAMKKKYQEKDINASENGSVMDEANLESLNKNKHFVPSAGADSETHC
Protocol: (§1) Cells for experiments were cultured in DMEM medium at 37° C. and 5% C02. Among them, DMEM medium contains 10% fetal calf serum, penicillin-streptomycin solution (100 U/mL and 0.1 mg/mL) and 0.5 mg/mL geneticin. Before the transfer experiment, cells were seeded in a 24-well plate at a density of 4×10^5 cells/well. The transfer experiment can be performed when the cell confluence reaches 80-90%.
(§2) The concentrations of substrates and positive inhibitors for each transporter are as follows.
(§3) Preparation of working solution: Use PBS to prepare a test substance stock solution with a concentration of 6 mM, and then dilute it with PBS in a gradient to 2000 μM, 1000 μM, 200 μM, 100 μM and 20 μM concentration working solution, and dilute the above working solutions of different concentrations to 20 μM, 10 μM, 2 μM, 1 μM and 0.2 μM concentration dosing solutions (Dosing Solution) respectively, so that the final concentrations of the test substance in the test system are 10 μM, 5 μM and 5 μM respectively. μM, 1 μM, 0.5 μM and 0.1 μM.
(§4) Pre-incubation of OATP1B1 and OATP1B3: Aspirate the culture medium from the culture plate, and wash the cells twice with 37° C. pre-warmed TB buffer (pH7.4), 0.5 mL each time. […] Among them, the NC group includes MOCK cells and each transporter cell, and the MOCK cell group is used to calculate the uptake ratio and passive transport amount. […]

human OATP1B3 (hOATP1B3) = biological target: T2, human OATP1B3 (hOATP1B3) (Homo sapiens, UniProt Q9NPD5); details: pH 7.4
T2 sequence (Q9NPD5 1-702): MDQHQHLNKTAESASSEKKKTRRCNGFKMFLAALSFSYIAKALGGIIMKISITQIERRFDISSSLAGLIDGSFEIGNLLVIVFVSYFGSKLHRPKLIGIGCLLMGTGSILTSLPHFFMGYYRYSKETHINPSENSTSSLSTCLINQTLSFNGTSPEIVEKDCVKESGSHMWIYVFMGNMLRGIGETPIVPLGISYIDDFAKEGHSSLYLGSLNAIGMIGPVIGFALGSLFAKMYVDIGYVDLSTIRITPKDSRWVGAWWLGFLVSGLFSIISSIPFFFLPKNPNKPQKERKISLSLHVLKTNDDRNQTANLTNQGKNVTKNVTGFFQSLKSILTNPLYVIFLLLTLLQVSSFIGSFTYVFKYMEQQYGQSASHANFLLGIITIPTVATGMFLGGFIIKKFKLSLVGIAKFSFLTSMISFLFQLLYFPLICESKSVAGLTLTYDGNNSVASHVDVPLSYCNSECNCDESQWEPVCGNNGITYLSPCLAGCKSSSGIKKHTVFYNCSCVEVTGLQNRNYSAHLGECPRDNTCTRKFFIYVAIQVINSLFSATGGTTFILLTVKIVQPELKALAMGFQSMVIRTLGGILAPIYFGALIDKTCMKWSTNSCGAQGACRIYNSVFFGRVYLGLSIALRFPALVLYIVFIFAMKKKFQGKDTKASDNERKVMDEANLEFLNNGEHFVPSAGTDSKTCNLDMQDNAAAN
Protocol: as §1, §2, §3, §4

Hela cells = test: Drug susceptibility test of selection antibiotics on HeLa cells; type: cell-based

SMILES: CN(CC[C@H](N)CC(=O)N[C@H]1C=C[C@H](n2ccc(N)nc2=O)O[C@@H]1C(=O)O)C(=N)N [BSD, Blasticidin]
- concentration that could kill all cultured cells (HepG2 cells): 2 µg/mL

SMILES: CCCCC(=O)N(Cc1ccc(-c2ccccc2-c2nnn[nH]2)cc1)[C@H](C(=O)O)C(C)C [valsartan]
- uptake ratio of drug substrate (human OATP1B1 (hOATP1B1)): 3.25
- uptake ratio of drug substrate (human OATP1B3 (hOATP1B3)): 6.90

SMILES: COc1ccc(C[C@H](N)C(=O)N[C@H]2[C@@H](O)[C@H](n3cnc4c(N(C)C)ncnc43)O[C@@H]2CO)cc1 [puromycin]
- concentration that could kill all cultured cells (Hela cells): 1 µg/mL
- concentration that could kill all cultured cells (HepG2 cells): 1 µg/mL
